Data published in patent US20250170133A1, “PHARMACEUTICAL COMBINATIONS AND METHODS OF USE OF AMINO-PYRROLOPYRIMIDINONE COMPOUND” (Merck Sharp & Dohme LLC, priority 2022, published 2025).

Columns and labels:
[1] = test system: BCL-2 and BCL-xL; assay: BH3 profiling of primary CLL cells from nemtabrutinib treated patients (cytochrome c release); format: cell-based, human; conditions: samples from 3 nemtabrutinib treated patients, co-cultured with NK Tert stromal cells
From the text: For FIG. 1F, primary CLL cells from nemtabrutinib treated patients were co-cultured with NK Tert stromal cells before performing BH3 profiling using BIM, BAD, MS-1, Y4ek, and PUMA2A peptides. Baseline cytochrome c release measured in DMSO treated cells has been subtracted from all test conditions and controls presented. Cytochrome c release in response to interaction with BIM, BAD, and Y4ek peptides indicates cellular dependency on BCL-2 and BCL-xL. A linear mixed effect model was used to analyze raw data and p values were adjusted for multiple comparisons using Tukey's method. All statistics represented are in comparison to DMSO treated control (*, p<0.05, **, p<0.01, ***, p<0.001).

[2] = test system: Eμ-TCL1 adoptive transfer CLL mouse model; assay: Eμ-TCL1 adoptive transfer CLL mouse model, survival; format: in vivo, C57BL/6NTac mice; conditions: daily oral gavage; venetoclax 100 mg/kg, nemtabrutinib 75 mg/kg, ibrutinib 25 mg/kg; 48 mice with BCR-dependent disease
From the text: (Bichi R, et al. Proc Natl Acad Sci USA. 2002; 99(10):6955-60). For FIG. 2A, splenocytes from a Eμ-TCL1 donor mouse were engrafted into 93 C57BL/6NTac mice via tail vein injection. Recipient mice were randomly enrolled into treatment groups after developing CD5+CD19+ disease as assessed by flow cytometry of peripheral blood. […] Due to the large study size, splenocytes from multiple E-TCL1 donors were needed to engraft C57BL/6NTac mice. Splenocytes from 4 donors were engrafted into groups of 48, 25, 17, and 3 recipient mice, respectively.
Peripheral blood disease progression was monitored weekly via flow cytometry and was reported as % CD5+CD19+ of CD45+ cells. (FIG. 2B). […] The survival differences of 48 mice engrafted with splenocytes from a single donor with BCR-dependent disease were assessed.

[3] = test system: ERK phosphorylation; assay: Immunoblot of anti-IgM stimulated primary CLL cells: pERK; format: cell-based, human; conditions: nemtabrutinib vs ibrutinib (1 μM), 24 hr, anti-IgM 15 min, normalized to GAPDH
Description: The effects of combining venetoclax and BTKi's on BCR signaling can be seen in FIG. 1B. […] Cells were stimulated with 10 μg plate-bound anti-IgM for 15 min before collection of whole cell lysate and analysis using SDS-PAGE.
For FIG. 1C to IE, all immunoblots of primary CLL patient samples were quantified using densitometry software (AlphaView). Protein levels (FIG. 1C: pBTK, FIG. 1D: pERK, FIG. 1E: MCL-1) normalized to GAPDH loading control are reported as fold change over vehicle control. A linear mixed effect model was used to analyze raw data normalized to GAPDH loading control and p values were adjusted for multiple comparisons using Tukey's method (*, p<0.05, ** p<0.01, ***, p<0.001).

[4] = test system: BTK^Y223 autophosphorylation; assay: Immunoblot of anti-IgM stimulated primary CLL cells: pBTK; format: cell-based, human; conditions: ibrutinib (1 μM), 24 hr, anti-IgM 15 min, normalized to GAPDH
[5] = test system: Primary CLL cells; assay: Primary CLL cell viability by flow cytometry following Annexin V/PI staining; format: cell-based, human; conditions: BTKi 1 μM added to venetoclax 5 nM; ibrutinib washed out after 1 hr; total incubation 24 hr
Description: Cell viability was assessed by flow cytometry following Annexin V/PI staining. Data are normalized to DMSO control. A linear mixed effect model was used to analyze raw data and p values were adjusted for multiple comparisons using Tukey's method (*, p<0.05, **, pS0.01, ***, pS0.001).

[6] = test system: BTK's downstream targets; conditions: cited from earlier work

| Structure (SMILES) | cytochrome c release in response to BIM, BAD and Y4ek peptides [1] | median survival [2] [days] | ERK phosphorylation [3] | autophosphorylation of BTK^Y223 vs stimulated vehicle [4] | increase in cytotoxicity compared to venetoclax alone [5] [%] | inhibition of BTK's downstream targets compared to ibrutinib [6] |
| --- | --- | --- | --- | --- | --- | --- |
| O=C(c1ccc(Oc2ccccc2)cc1Cl)c1c[nH]c2ncnc(N[C@@H]3CC[C@@H](CO)OC3)c12 [nemtabrutinib] | maintain dependence on BCL2 and BCL-xL | 81.5 | inhibited to a more significant degree | significantly inhibited | 10 | greater inhibition |
| CC1(C)CCC(CN2CCN(c3ccc(C(=O)NS(=O)(=O)c4ccc(NCC5CCOCC5)c([N+](=O)[O-])c4)c(Oc4cnc5[nH]ccc5c4)c3)CC2)=C(c2ccc(Cl)cc2)C1 [venetoclax, reference compound] |  | 34.5 |  |  |  |  |
